One may read the IC50 as the concentration needed to halve the response being measured.

Each structure is given as a SMILES string.

In one series the target is mGFP-K-RASG12V (Homo sapiens (Human), UniProt P01116, G12V). As to the kind of experiment: K-Ras mislocalization assay (confocal microscopy, Manders coefficient). The note with it: MDCK cells; for IC50: 48 h treatment, read-out: IC50 (μM), KRASG12V mislocalization; for Emax: maximal effect, Manders coefficient, 48 h. More on the design: key to Emax: Manders coefficient: fraction of mCherry-CAAX co-localizing with GFP-K-Ras. Format: cell-based. The procedure, abridged:
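Readout is the Manders coefficient: share of mCherry-CAAX overlapping mGFP-K-RASG12V in confocal images, proportional to K-Ras mislocalization. Stable MDCK co-expressing lines were exposed 48 h to various drug concentrations or 0.1% DMSO vehicle, then paraformaldehyde-fixed.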

Series [1] concerns MDCK cells co-expressing GFP-K-RASG12V and mCherry-CAAX. As to the kind of experiment: Cytotoxicity in mislocalization screen (death of all cells in well). As to conditions: drug caused death of all cells in well at 30 μM.

Consider `O=S(=O)(c1ccc(F)cc1)N(CC=C(c1ccccc1)c1ccccc1)CCN1CCCC1` [PW277, N-(3,3-diphenylallyl)-4-fluoro-N-(2-(pyrrolidin-1-yl)ethyl)benzenesulfonamide], for which, at mGFP-K-RASG12V, the IC50 amounted to 3.97 µM and the Emax is given as 0.592. In series [1], the “Cytotoxic at 30 μM” value is reported as “Yes”.
Turning to `Fc1ccc(CN(CC=C(c2ccccc2)c2ccccc2)CCN2CCCC2)cc1` [PW278, N-(4-fluorobenzyl)-3,3-diphenyl-N-(2-(pyrrolidin-1-yl)ethyl)prop-2-en-1-amine], on mGFP-K-RASG12V, the IC50 is 8.85 µM and the Emax is given as 0.739. Moreover, in series [1], the “Cytotoxic at 30 μM” value is given as “Yes”.
In the same order, the values of `O=C(Nc1ccc(F)cc1)N(CC=C(c1ccccc1)c1ccccc1)CCN1CCCC1` [PW279, 1-(3,3-diphenylallyl)-3-(4-fluorophenyl)-1-(2-(pyrrolidin-1-yl)ethyl)urea] are 3.4 µM, 0.608 and “Yes”.
For `O=C(OCc1ccccc1)N(CC=C(c1ccccc1)c1ccccc1)CCN1CCCC1` [PW280, benzyl (3,3-diphenylallyl)(2-(pyrrolidin-1-yl)ethyl)carbamate], in that order: 6.03 µM, 0.709 and “Yes”.
With `Nc1nccnc1C(=O)N(CC=C(c1ccccc1)c1ccccc1)CCN1CCCC1` [PW282, 3-amino-N-(3,3-diphenylallyl)-N-(2-(pyrrolidin-1-yl)ethyl)pyrazine-2-carboxamide], at mGFP-K-RASG12V, the IC50 turned out to be 12.5 µM and the Emax is recorded as 0.592. Also, the “Cytotoxic at 30 μM” value in series [1] is recorded as “No”.
Consider `O=C(c1cc(-c2ccc(Cl)cc2)on1)N(CC=C(c1ccccc1)c1ccccc1)CCN1CCCC1` [PW283, 5-(4-chlorophenyl)-N-(3,3-diphenylallyl)-N-(2-(pyrrolidin-1-yl)ethyl)isoxazole-3-carboxamide], for which, on mGFP-K-RASG12V, the Emax is on record as 0.324. In addition, in series [1], the “Cytotoxic at 30 μM” value is given as “Yes”.
In the same order, the values of `O=C(/C=C/c1ccccc1)N(CC=C(c1ccccc1)c1ccccc1)CCN1CCCC1` [PW284, N-(3,3-diphenylallyl)-N-(2-(pyrrolidin-1-yl)ethyl)cinnamamide] are 0.549 and “Yes”.
As to `O=C(c1cnc2ccccc2n1)N(CC=C(c1ccccc1)c1ccccc1)CCN1CCCC1` [PW285, N-(3,3-diphenylallyl)-N-(2-(pyrrolidin-1-yl)ethyl)quinoxaline-2-carboxamide], on mGFP-K-RASG12V, the IC50 stood at 4.52 µM and the Emax is recorded as 0.62. The “Cytotoxic at 30 μM” value in series [1] is on record as “Yes”.
Consider `O=C(c1cc2ccccn2n1)N(CC=C(c1ccccc1)c1ccccc1)CCN1CCCC1` [PW286, N-(3,3-diphenylallyl)-N-(2-(pyrrolidin-1-yl)ethyl)pyrazolo[1,5-a]pyridine-2-carboxamide], for which, at mGFP-K-RASG12V, the IC50 was determined as 6.63 µM and the Emax is recorded as 0.801. Besides, in series [1], the “Cytotoxic at 30 μM” value was “No”.
Regarding `C(CN(CCN1CCCC1)Cc1cc2cccnc2[nH]1)=C(c1ccccc1)c1ccccc1` [PW293, N-((1H-pyrrolo[2,3-b]pyridin-2-yl)methyl)-3,3-diphenyl-N-(2-(pyrrolidin-1-yl)ethyl)prop-2-en-1-amine], on mGFP-K-RASG12V, the IC50 is 3.37 µM and the Emax is recorded as 0.83. Moreover, the “Cytotoxic at 30 μM” value in series [1] is “Yes”.
In the same order, the values of `Brc1cccc(CN(CC=C(c2ccccc2)c2ccccc2)CCN2CCCC2)n1` [PW295, N-((6-bromopyridin-2-yl)methyl)-3,3-diphenyl-N-(2-(pyrrolidin-1-yl)ethyl)prop-2-en-1-amine] are 2.82 µM, 0.801 and “Yes”.
For the compound `C[C@H](c1ccc(F)cc1)N(CC=C(c1ccccc1)c1ccccc1)CCn1ccc2cccnc21` [PW297, (R)-N-(2-(1H-pyrrolo[2,3-b]pyridin-1-yl)ethyl)-N-(1-(4-fluorophenyl)ethyl)-3,3-diphenylprop-2-en-1-amine], on mGFP-K-RASG12V, the IC50 is 2.27 µM and the Emax amounted to 0.685. In series [1], the “Cytotoxic at 30 μM” value is listed as “No”.
For `Cc1cc(C)n(CCN(CC=C(c2ccccc2)c2ccccc2)[C@H](C)c2ccc(F)cc2)n1` [PW299, (R)-N-(2-(3,5-dimethyl-1H-pyrazol-1-yl)ethyl)-N-(1-(4-fluorophenyl)ethyl)-3,3-diphenylprop-2-en-1-amine], in that order: 0.654 µM, 0.696 and “No”.
In the same order, the values of `C[C@H](c1ccc(F)cc1)N(CC=C(c1ccccc1)c1ccccc1)CCn1cc(CCO)nn1` [PW303, (R)-2-(1-(2-((3,3-diphenylallyl)(1-(4-fluorophenyl)ethyl)amino)ethyl)-1H-1,2,3-triazol-4-yl)ethan-1-ol] are 4.13 µM, 0.675 and “Yes”.
On to `C[C@H](c1ccc(F)cc1)N(CC=C(c1ccccc1)c1ccccc1)CCn1cc(CO)nn1` [PW304, (R)-(1-(2-((3,3-diphenylallyl)(1-(4-fluorophenyl)ethyl)amino)ethyl)-1H-1,2,3-triazol-4-yl)methanol], for which, at mGFP-K-RASG12V, the IC50 worked out at 2.77 µM and the Emax was 0.794. Also, in series [1], the “Cytotoxic at 30 μM” value was “No”.
For the compound `C[C@H](c1ccc(F)cc1)N(CC=C(c1ccccc1)c1ccccc1)CCn1cc(CN)nn1` [PW305, (R)-N-(2-(4-(aminomethyl)-1H-1,2,3-triazol-1-yl)ethyl)-N-(1-(4-fluorophenyl)ethyl)-3,3-diphenylprop-2-en-1-amine], on mGFP-K-RASG12V, the IC50 was 0.507 µM and the Emax turned out to be 0.609. The “Cytotoxic at 30 μM” value in series [1] was “Yes”.
With `C[C@H](c1ccc(F)cc1)N(CC=C(c1ccccc1)c1ccccc1)CCn1cc(CN(C)C)nn1` [PW306, (R)-N-(2-(4-((dimethylamino)methyl)-1H-1,2,3-triazol-1-yl)ethyl)-N-(1-(4-fluorophenyl)ethyl)-3,3-diphenylprop-2-en-1-amine], on mGFP-K-RASG12V, the IC50 is 3.19 µM and the Emax was determined as 0.666. The “Cytotoxic at 30 μM” value in series [1] is given as “Yes”.
As for `COC(=O)c1cn(CCN(CC=C(c2ccccc2)c2ccccc2)[C@H](C)c2ccc(F)cc2)nn1` [PW307, methyl (R)-1-(2-((3,3-diphenylallyl)(1-(4-fluorophenyl)ethyl)amino)ethyl)-1H-1,2,3-triazole-4-carboxylate], the Emax on mGFP-K-RASG12V amounted to 0.628. Further, the “Cytotoxic at 30 μM” value in series [1] was “No”.
For the compound `C[C@H](c1ccc(F)cc1)N(CC=C(c1ccccc1)c1ccccc1)CCn1cc(-c2ccc(F)cc2)nn1` [PW308, (R)-N-(2-(4-(4-fluorophenyl)-1H-1,2,3-triazol-1-yl)ethyl)-N-(1-(4-fluorophenyl)ethyl)-3,3-diphenylprop-2-en-1-amine], at mGFP-K-RASG12V, the half-inhibitory concentration (IC50) amounted to 3.32 µM and the Emax came to 0.721. Further, the “Cytotoxic at 30 μM” value in series [1] is listed as “No”.
Regarding `C[C@H](c1ccc(F)cc1)N(CCN1CCCC1)C(=O)Nc1ccc(C(F)(F)F)cc1` [PW321, (R)-1-(1-(4-Fluorophenyl)ethyl)-1-(2-(pyrrolidin-1-yl)ethyl)-3-(4-(trifluoromethyl)phenyl)urea], at mGFP-K-RASG12V, the Emax came out at 0.587. Moreover, the “Cytotoxic at 30 μM” value in series [1] is recorded as “No”.
In the same order, the values of `C[C@H](c1ccc(F)cc1)N(CCN1CCCC1)C(=O)c1ccc(C(F)(F)F)cc1` [PW322, (R)-N-(1-(4-Fluorophenyl)ethyl)-N-(2-(pyrrolidin-1-yl)ethyl)-4-(trifluoromethyl)benzamide] are 0.662 and “No”.
Take `C[C@H](c1ccc(F)cc1)N(CCN1CCCC1)C(=O)c1cc(-c2ccccc2)ccn1` [PW324, (R)-N-(1-(4-Fluorophenyl)ethyl)-4-phenyl-N-(2-(pyrrolidin-1-yl)ethyl)picolinamide]: on mGFP-K-RASG12V, the IC50 is 2.9 µM and the Emax is 0.767. For the same compound, the “Cytotoxic at 30 μM” value in series [1] was “No”.
Turning to `Cc1ccc(C(=CCN(CCN2CCCC2)[C@H](C)c2ccc(F)cc2)c2ccc(C)cc2)cc1` [PW327, (R)-N-(1-(4-Fluorophenyl)ethyl)-N-(2-(pyrrolidin-1-yl)ethyl)-3,3-di-p-tolylprop-2-en-1-amine], on mGFP-K-RASG12V, the IC50 turned out to be 7.8 µM and the Emax is 0.808. Moreover, in series [1], the “Cytotoxic at 30 μM” value was “Yes”.
Take `COc1ccc(C(=CCN(CCN2CCCC2)[C@H](C)c2ccc(F)cc2)c2ccc(OC)cc2)cc1` [PW356, (R)-N-(1-(4-Fluorophenyl)ethyl)-3,3-bis(4-methoxyphenyl)-N-(2-(pyrrolidin-1-yl)ethyl)prop-2-en-1-amine]: on mGFP-K-RASG12V, the IC50 is 2.44 µM and the Emax is reported as 0.641. The “Cytotoxic at 30 μM” value in series [1] is given as “Yes at 10 uM”.
Turning to `COc1cccc(C(=CCN(CCN2CCCC2)[C@H](C)c2ccc(F)cc2)c2cccc(OC)c2)c1` [PW357, (R)-N-(1-(4-Fluorophenyl)ethyl)-3,3-bis(3-methoxyphenyl)-N-(2-(pyrrolidin-1-yl)ethyl)prop-2-en-1-amine], the Emax at mGFP-K-RASG12V is on record as 0.497. Besides, the “Cytotoxic at 30 μM” value in series [1] is on record as “Yes at 10 uM”.
On to `COc1cc(C(=CCN(CCN2CCCC2)[C@H](C)c2ccc(F)cc2)c2cc(OC)c(OC)c(OC)c2)cc(OC)c1OC` [PW358, (R)-N-(1-(4-Fluorophenyl)ethyl)-N-(2-(pyrrolidin-1-yl)ethyl)-3,3-bis(3,4,5-trimethoxyphenyl)prop-2-en-1-amine], for which, on mGFP-K-RASG12V, the IC50 amounted to 1.02 µM and the Emax amounted to 0.938. In addition, in series [1], the “Cytotoxic at 30 μM” value is recorded as “Yes”.
`C[C@H](c1ccc(F)cc1)N(C/C=C(/c1ccccc1)c1ccc(OC(F)(F)F)cc1)CCN1CCCC1` [PW361, (R,Z)-N-(1-(4-fluorophenyl)ethyl)-3-phenyl-N-(2-(pyrrolidin-1-yl)ethyl)-3-(4-(trifluoromethoxy)phenyl)prop-2-en-1-amine]: at mGFP-K-RASG12V, the IC50 came to 0.725 µM and the Emax is given as 0.606. For the same compound, the “Cytotoxic at 30 μM” value in series [1] was “Yes at 3 uM”.

Values taken from patent US12043602B2, “Fendiline derivatives” (The Board of Regents of the University of Texas System, priority 2019, dated 2024).
